# Test results as given in US4777182A, “6-Amidino-2-naphthyl 4-guanidinobenzoate derivatives and pharmaceutical composition containing them” (Torii & Co., Ltd., priority 1984, dated 1988).
# Tests used:
# Trypsin = molecular target: T1, Trypsin (Bos taurus, UniProt P00760); assay: Anti-trypsin activity (inhibition of TAME hydrolysis); format: biochemical; details: read-out: ID50, Trypsin
# T1 sequence (P00760 24-246): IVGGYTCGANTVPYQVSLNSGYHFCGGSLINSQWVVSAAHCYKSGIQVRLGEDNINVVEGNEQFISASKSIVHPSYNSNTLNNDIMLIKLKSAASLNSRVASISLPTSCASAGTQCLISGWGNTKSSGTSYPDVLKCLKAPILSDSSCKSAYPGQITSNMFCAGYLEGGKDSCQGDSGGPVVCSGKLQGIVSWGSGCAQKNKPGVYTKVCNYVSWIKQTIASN
# Plasmin = Plasmin (Homo sapiens, UniProt P00747); assay: Anti-plasmin activity (inhibition of TAME hydrolysis); format: biochemical; details: TAME hydrolysis; read-out: ID50, Plasmin
# Chain of Plasmin (P00747 97-580 limits assumed, species assumed): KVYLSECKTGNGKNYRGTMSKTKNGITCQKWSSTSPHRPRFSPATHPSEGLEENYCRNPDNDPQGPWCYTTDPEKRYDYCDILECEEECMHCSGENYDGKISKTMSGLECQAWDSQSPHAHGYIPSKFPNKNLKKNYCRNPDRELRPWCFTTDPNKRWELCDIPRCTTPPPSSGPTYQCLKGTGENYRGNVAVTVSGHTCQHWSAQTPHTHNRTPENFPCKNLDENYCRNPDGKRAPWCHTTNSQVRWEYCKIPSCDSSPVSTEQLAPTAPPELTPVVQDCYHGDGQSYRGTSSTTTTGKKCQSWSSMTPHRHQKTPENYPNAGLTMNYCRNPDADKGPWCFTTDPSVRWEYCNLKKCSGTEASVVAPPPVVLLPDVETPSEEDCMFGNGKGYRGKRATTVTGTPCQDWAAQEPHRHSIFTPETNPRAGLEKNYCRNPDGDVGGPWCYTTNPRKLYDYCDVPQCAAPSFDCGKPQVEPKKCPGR
# Chain of Plasmin (P00747 581-810 limits assumed, species assumed): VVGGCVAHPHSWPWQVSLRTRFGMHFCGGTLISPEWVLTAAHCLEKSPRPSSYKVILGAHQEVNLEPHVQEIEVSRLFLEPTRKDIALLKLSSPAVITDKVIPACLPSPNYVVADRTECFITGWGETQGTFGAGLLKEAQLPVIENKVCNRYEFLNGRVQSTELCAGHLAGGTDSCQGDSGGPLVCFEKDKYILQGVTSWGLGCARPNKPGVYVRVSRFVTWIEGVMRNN
# Kallikrein = assay: Anti-kallikrein activity (inhibition of TAME hydrolysis); format: biochemical; details: read-out: ID50, Kallikrein
# Thrombin = Thrombin (Homo sapiens, UniProt P00734); assay: biochemical; details: for IC50: TAME hydrolysis, read-out: ID50, Thrombin
# C1r = molecular target: T2, C1r (Homo sapiens, UniProt P00736); assay: Anti-C1r activity (inhibition of AAME hydrolysis); format: biochemical; details: for inhibition at 10 µM: at 1×10^-5 M, read-out: percent inhibition, C1r (figure in parentheses); for IC50: AAME hydrolysis, read-out: ID50, C1r
# T2 sequence (P00736 18-463 limits assumed): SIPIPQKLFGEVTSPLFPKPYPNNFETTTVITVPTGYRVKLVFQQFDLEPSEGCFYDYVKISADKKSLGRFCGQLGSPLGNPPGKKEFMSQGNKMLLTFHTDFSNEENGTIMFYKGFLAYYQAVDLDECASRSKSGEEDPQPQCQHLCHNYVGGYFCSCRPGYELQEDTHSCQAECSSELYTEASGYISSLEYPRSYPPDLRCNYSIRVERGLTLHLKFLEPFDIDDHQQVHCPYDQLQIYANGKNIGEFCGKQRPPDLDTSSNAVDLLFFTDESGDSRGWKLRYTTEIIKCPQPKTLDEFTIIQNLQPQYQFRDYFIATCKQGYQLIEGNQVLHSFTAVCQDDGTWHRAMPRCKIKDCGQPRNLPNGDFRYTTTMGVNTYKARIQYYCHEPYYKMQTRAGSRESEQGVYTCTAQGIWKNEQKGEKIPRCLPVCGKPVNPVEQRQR
# T2 sequence (P00736 464-705 limits assumed): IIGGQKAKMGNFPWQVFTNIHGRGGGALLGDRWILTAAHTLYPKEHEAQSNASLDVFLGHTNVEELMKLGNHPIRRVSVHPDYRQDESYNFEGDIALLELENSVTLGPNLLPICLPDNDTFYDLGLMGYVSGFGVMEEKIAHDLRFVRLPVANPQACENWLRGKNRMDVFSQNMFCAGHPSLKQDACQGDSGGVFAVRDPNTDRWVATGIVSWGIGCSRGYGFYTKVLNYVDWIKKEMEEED
# Description: The anti-C1 esterase (C1r, C1s) activity was determined according to the method of Okamura et al. [K. Okamura, M. Muramatsu and B. Fujii, Biochem. Biophys. Acta, 295, 252-257 (1973)]. (2) The inhibition of complement mediated hemolysis was determined according to the method of Baker et al. [B. R. Baker and E. H. Erickson, J. Med. Chem., 12, 408-414 (1969)]. The figures in Table 2 have the following meanings: C1r: […]
# C1s = molecular target: T3, C1s (Homo sapiens, UniProt P09871); assay: Anti-C1s activity (inhibition of ATEE hydrolysis); format: biochemical; details: read-out: ID50, C1s
# T3 sequence (P09871 16-437 limits assumed): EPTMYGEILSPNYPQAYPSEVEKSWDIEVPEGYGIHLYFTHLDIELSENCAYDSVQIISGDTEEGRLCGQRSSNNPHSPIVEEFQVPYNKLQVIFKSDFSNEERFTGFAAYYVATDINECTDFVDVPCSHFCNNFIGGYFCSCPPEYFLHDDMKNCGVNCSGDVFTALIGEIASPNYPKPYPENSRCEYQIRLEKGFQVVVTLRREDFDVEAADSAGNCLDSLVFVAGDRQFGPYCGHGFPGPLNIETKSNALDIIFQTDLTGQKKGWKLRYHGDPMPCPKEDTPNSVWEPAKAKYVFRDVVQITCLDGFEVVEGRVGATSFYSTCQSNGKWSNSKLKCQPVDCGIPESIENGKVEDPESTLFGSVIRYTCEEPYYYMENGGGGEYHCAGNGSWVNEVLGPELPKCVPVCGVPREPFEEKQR
# T3 sequence (P09871 438-688 limits assumed): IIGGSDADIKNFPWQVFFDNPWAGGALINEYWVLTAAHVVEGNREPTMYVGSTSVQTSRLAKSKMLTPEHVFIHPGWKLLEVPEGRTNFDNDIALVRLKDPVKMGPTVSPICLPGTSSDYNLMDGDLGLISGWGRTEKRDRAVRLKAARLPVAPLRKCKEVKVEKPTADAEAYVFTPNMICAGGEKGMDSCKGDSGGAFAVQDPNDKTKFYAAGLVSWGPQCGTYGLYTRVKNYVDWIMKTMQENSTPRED
# Description: The anti-C1 esterase (C1r, C1s) activity was determined according to the method of Okamura et al. [K. Okamura, M. Muramatsu and B. Fujii, Biochem. Biophys. Acta, 295, 252-257 (1973)]. (2) The inhibition of complement mediated hemolysis was determined according to the method of Baker et al. [B. R. Baker and E. H. Erickson, J. Med. Chem., 12, 408-414 (1969)]. The figures in Table 2 have the following meanings:
# C1s: Molar concentration of the test compound which inhibits 50% of the ability of C1s to hydrolyse ATEE (acetyltyrosin ethyl ester) (ID50).
# [1] = tested on: complement mediated hemolysis; assay: Inhibition of complement mediated hemolysis; format: cell-based
# Description: Therefore, when a known amount of complement admixed with a C1 esterase inhibitor is used, the hemolysis must be suppressed in proportion to the inhibitory activity.
Compound,IC50 (Trypsin) [µM],IC50 (Plasmin) [µM],IC50 (Kallikrein) [µM],IC50 (Thrombin) [µM],inhibition at 10 µM (C1r) [%],IC50 (C1s) [µM],Inhibition of complement mediated hemolysis (%) ([1]; 1 × 10^-5),Inhibition of complement mediated hemolysis (%) ([1]; 1 × 10^-6),Inhibition of complement mediated hemolysis (%) ([1]; 1 × 10^-7),IC50 (C1r) [µM],"inhibition at 10 µM (Thrombin; at 1×10^-5 M, read-out: percentage inhibition, Thrombin (figure in parentheses)) [%]"
CN1CCNC1=Nc1ccc(C(=O)Oc2ccc3cc(C(=N)N)ccc3c2)cc1 [compound 3],0.3,1,0.6,0.8,38,0.3,93,25,0,,
CC1CNC(Nc2ccc(C(=O)Oc3ccc4cc(C(=N)N)ccc4c3)cc2)=N1 (stereo not shown) [compound 4],3,1,0.4,2,,0.4,100,96,48,10,
N=C(N)c1ccc2cc(OC(=O)c3ccc(NC4=NCCCN4)cc3)ccc2c1 [compound 5],6,1,0.5,2,41,0.3,98,83,5,,
N=C(N)c1ccc2cc(OC(=O)c3ccc(NC4=NC5CCCCC5N4)cc3)ccc2c1 (stereo not shown) [compound 6],2,3,0.9,2,,0.4,100,100,75,9,
N=C(N)c1ccc2cc(OC(=O)c3ccc(Nc4ncc[nH]4)cc3)ccc2c1 [compound 7],0.6,5,4,6,,0.3,96,46,4,3,
CNC(=N)Nc1ccc(C(=O)Oc2ccc3cc(C(=N)N)ccc3c2)cc1 [compound 8],4,3,3,0.06,47,2,100,93,34,,
CN(C)C(=N)Nc1ccc(C(=O)Oc2ccc3cc(C(=N)N)ccc3c2)cc1 [compound 9],6,2,0.9,0.6,41,0.4,100,68,8,,
CCNC(=N)Nc1ccc(C(=O)Oc2ccc3cc(C(=N)N)ccc3c2)cc1 [compound 10],2,5,0.4,6,48,0.8,100,86,20,,
CCNC(=NC)Nc1ccc(C(=O)Oc2ccc3cc(C(=N)N)ccc3c2)cc1 [compound 11],,,,,24,0.2,100,57,0,,
CCN=C(NCC)Nc1ccc(C(=O)Oc2ccc3cc(C(=N)N)ccc3c2)cc1 [compound 12],,,,,24,0.08,100,59,0,,
CCCCNC(=N)Nc1ccc(C(=O)Oc2ccc3cc(C(=N)N)ccc3c2)cc1 [compound 13],2,0.5,0.9,1,46,0.5,100,78,3,,
N=C(NCCO)Nc1ccc(C(=O)Oc2ccc3cc(C(=N)N)ccc3c2)cc1 [compound 15],2,2,1,1,,0.9,96,52,6,5,
CC(=O)NCCNC(=N)Nc1ccc(C(=O)Oc2ccc3cc(C(=N)N)ccc3c2)cc1 [compound 16],4,0.9,3,,35,3,100,89,25,,49
N=C(NCCOCc1ccccc1)Nc1ccc(C(=O)Oc2ccc3cc(C(=N)N)ccc3c2)cc1 [compound 18],2,0.6,2,5,37,2,100,100,46,,
